# According to patent publication US6767569B1, “Surface decontamination of cooked sausage and processed meat and poultry products” (priority 1999, dated 2004):
# Experiments:
# [1] = Stability of peracetic acid solutions; assay type: physicochemical
# Method: Peracetic acid solutions were prepared in deionized water as for Example 2 to nominal concentrations of 1000 and 2000 mg/L. Actual peracetic acid concentrations were measured at 0 and 30 minutes at around 25° C. and 50° C.
# microorganism = test: Contacting the surfaces of the food product with peracetic acid solution; assay type: cell-based; settings: 1,000 ppm peracetic acid solution for 12 seconds at 8 °C
# Source text: The decontaminant solution preferably contains from about 500 to about 4,000 ppm of peracetic acid. The optimal concentration depends an the length of time to which the food products are exposed to the decontaminant solution and on the temperature of the decontaminant solution. […] For ensuring complete elimination of resistant microorganisms, such as Listeria, longer times and/or higher peracetic acid concentrations are preferred. Preferred peracetic acid concentrations are from about 1000 to about 2,000 ppm for contact times of 30 seconds to 1 minute to ensure complete kill of Listeria and other undesirable microorganisms at temperatures of from about 8-20° C. Microbiological analysis procedures are carried out periodically on samples of the treated frankfurters to ensure that the conditions used are maintaining a 100% kill of Listeria or other selected microorganisms.
# [2] = nominal 1000 mg/L, 26-29 °C, pH 2.7
# [3] = nominal 1000 mg/L, 50 °C, pH 2.7
# [4] = nominal 2000 mg/L, 26-29 °C, pH 2.6
# [5] = nominal 2000 mg/L, 50 °C, pH 2.6
smiles,measurement,setting,value
CC(=O)OO [peracetic acid],stability of the solutions over the 30 minute period,"[1]; 1000 and 2000 mg/L nominal, around 25 °C and 50 °C",relatively stable
same,Concentration at 0 mins,[1]; [2],1347 µg/mL
same,Concentration at 30 mins,[1]; [2],1355 µg/mL
same,Concentration at 0 mins,[1]; [3],1310 µg/mL
same,Concentration at 30 mins,[1]; [3],1284 µg/mL
same,Concentration at 0 mins,[1]; [4],2016 µg/mL
same,Concentration at 30 mins,[1]; [4],2017 µg/mL
same,Concentration at 0 mins,[1]; [5],1937 µg/mL
same,Concentration at 30 mins,[1]; [5],1959 µg/mL
same,reduction in the number of microorganism,microorganism,six log reduction
